Test results from BindingDB's records for doi:10.1016/j.chembiol.2008.07.015 (Duke University Medical Center, 2008).

Tests used:
Assay in all cases: BP Incorporation Assay
Details in all cases: 37 °C
[1] = target: Protein kinase C alpha type/glutamine gamma-glutamyltransferase 2 (Homo sapiens, UniProt P17252+P21980)
Protocol: (§1) In order to eliminated fluorescence interference, chemicals were subjected to a secondary screening using colorimetric BP incorporation assay. TGase/TGMS activity was determined by quantifying the incorporation of BP into N,N'-dimethylcasein in a microtiter plate.

[2] = target: T1, Protein-glutamine gamma-glutamyltransferase 2 (Homo sapiens, UniProt P21980)
T1 sequence (P21980 whole entry): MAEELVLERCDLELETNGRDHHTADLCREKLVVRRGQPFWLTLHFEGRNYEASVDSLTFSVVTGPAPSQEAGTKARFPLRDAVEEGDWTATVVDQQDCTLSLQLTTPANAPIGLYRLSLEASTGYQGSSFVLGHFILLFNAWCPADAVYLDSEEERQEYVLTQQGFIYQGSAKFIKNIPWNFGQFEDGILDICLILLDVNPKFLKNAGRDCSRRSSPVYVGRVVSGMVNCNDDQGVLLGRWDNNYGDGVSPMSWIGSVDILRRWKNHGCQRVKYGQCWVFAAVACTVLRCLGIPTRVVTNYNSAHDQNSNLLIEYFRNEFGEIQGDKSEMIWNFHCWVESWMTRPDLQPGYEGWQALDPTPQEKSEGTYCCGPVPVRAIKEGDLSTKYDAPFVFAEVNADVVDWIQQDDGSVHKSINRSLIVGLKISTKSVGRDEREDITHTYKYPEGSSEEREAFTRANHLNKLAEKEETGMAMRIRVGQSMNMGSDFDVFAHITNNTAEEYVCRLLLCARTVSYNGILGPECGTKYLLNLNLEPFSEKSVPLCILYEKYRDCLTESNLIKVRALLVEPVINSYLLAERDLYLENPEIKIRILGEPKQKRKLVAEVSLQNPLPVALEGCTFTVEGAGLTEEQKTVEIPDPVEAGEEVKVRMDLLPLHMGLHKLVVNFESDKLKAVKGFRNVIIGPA
Protocol: as §1

[3] = target: Protein-glutamine gamma-glutamyltransferase 2/Receptor protein-tyrosine kinase (Homo sapiens, UniProt P21980+Q504U8)
Protocol: as §1

Chain of Protein-glutamine gamma-glutamyltransferase 2/Receptor protein-tyrosine kinase (Q504U8 whole entry, one chain of several): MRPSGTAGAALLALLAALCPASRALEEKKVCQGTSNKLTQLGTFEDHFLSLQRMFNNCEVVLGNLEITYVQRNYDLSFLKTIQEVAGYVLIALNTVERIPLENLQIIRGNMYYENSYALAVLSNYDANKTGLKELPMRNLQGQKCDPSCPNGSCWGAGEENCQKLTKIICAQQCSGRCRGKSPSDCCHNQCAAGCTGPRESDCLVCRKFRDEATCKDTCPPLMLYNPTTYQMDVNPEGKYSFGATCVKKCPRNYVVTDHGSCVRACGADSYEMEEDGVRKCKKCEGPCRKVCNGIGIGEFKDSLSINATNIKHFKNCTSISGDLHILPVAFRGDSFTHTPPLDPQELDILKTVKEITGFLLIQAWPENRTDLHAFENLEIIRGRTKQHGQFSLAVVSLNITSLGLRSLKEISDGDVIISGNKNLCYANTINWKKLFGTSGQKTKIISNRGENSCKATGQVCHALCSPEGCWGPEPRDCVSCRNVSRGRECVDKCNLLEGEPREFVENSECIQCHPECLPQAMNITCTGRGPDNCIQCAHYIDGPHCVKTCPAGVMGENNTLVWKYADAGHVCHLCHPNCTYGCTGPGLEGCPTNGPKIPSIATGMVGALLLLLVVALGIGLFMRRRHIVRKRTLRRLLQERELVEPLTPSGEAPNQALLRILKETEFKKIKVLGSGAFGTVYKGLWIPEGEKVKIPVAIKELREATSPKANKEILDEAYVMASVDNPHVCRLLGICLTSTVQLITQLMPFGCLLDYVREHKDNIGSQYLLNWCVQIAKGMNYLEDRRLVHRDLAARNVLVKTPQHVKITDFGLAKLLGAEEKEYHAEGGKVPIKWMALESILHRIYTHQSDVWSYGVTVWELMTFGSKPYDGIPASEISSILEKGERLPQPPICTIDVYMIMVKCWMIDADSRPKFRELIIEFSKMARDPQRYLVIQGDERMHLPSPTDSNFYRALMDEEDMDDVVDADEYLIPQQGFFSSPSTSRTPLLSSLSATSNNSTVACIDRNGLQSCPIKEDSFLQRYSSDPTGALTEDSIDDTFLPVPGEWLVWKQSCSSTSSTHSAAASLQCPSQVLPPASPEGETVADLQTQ

SMILES	IC50 [1] [µM]	also measured
CC(=O)c1c(O)c(C)c(O)c(Cc2c(O)c3c(c(C(=O)C=Cc4ccccc4)c2O)OC(C)(C)C=C3)c1O [(E)-1-(6-(3-acetyl-2,4,6-trihydroxy-5-methylbenzyl)-5,7-dihydroxy-2,2-dimethyl-2H-chromen-8-yl)-3-phenylprop-2-en-1-one]	20	
O=C1Nc2ccc(I)cc2/C1=C/c1cc(Br)c(O)c(Br)c1 [G6416 (GW5074)]	15	
CC1=CC(=O)c2ccccc2C1=O [Vitamin K3]		IC50 [2]: 2.2 µM
N#C/C(=C\c1ccc(O)c(O)c1)C(N)=S [alpha-Cyano-(3,4-dihydroxy)thiocinnamide]		IC50 [3]: 3 µM
